Results on 22 molecules are retold here after patent publication US20240376076A1, “INHIBITORS TARGETING UBIQUITIN SPECIFIC PROTEASE 7 (USP7)” (Dana-Farber Cancer Institute, Inc., priority 2021, published 2024).

The structures appear in SMILES notation.

For the assay, the target named is T1, USP7, Active human recombinant protein (Homo sapiens, UniProt Q93009).
T1 construct: purchased CP Lot; 20200225001
T1 sequence (Q93009 whole entry): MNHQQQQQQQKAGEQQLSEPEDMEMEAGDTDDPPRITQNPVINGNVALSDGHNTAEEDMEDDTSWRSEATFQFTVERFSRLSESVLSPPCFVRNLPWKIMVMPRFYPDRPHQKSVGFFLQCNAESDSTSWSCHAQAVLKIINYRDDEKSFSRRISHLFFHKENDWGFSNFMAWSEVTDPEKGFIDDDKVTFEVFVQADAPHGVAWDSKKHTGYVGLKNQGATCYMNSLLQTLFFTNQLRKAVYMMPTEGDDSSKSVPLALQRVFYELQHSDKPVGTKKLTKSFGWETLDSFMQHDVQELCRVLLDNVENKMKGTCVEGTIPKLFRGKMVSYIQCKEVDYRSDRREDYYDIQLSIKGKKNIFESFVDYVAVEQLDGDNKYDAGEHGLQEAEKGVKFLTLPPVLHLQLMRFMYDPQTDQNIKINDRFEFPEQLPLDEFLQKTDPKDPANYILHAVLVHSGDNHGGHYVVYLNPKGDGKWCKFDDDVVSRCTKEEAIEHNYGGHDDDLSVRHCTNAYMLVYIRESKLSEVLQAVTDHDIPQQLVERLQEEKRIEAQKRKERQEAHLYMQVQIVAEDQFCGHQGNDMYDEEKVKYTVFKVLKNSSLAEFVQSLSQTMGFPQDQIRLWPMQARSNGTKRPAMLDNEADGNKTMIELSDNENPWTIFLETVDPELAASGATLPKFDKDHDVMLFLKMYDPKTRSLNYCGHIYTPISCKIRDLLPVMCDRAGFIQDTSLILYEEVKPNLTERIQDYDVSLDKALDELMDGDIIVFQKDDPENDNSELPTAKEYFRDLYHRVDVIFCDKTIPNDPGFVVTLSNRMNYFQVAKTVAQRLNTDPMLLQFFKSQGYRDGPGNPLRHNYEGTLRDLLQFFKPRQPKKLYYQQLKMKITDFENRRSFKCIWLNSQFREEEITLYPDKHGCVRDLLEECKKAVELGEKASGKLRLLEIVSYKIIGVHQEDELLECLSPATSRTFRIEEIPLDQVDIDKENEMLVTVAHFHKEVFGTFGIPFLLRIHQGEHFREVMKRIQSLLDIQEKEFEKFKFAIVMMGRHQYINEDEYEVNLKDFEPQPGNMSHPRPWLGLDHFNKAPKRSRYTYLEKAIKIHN
As to the kind of experiment: USP7 assay (Ubiquitin-Rhodamine 110 enzymatic assay). It counts as biochemical. To be noted: read-out: IC50. The method, then: Enzymatic Assays with Exemplary USP7 Irreversible Inhibitors
ND refers to not disclosed.
USP7, Active human recombinant protein (CP, Lot. 20200225001), Ubiquitin-Rhodamine 110 (Rh110) (BostonBiochem, Cat. No. U-555), DMSO (Sigma, Cat. N34869), DTT (Sangon Biotech, Cat. No. A620058-0005), […] Tris pH 8.0 (Sigma, Cat. No. T2694-1L), Tween-20 (Sigma, Cat. No. P2287-100ML), EDTA (Invitrogen, Cat. No. 15575020, BSA (Sigma, Cat. No. B2064-100G), 384-well assay plate (Corning, Cat. No. 3573), Echo Qualified 384-Well Polypropylene Microplate 2.0, Clear, Flat Bottom (LABCYTE, Cat. No. 001-14555).
Dilute the compounds to 400× of the final desired highest inhibitor concentration in reaction by 100% DMSO. For all compounds, transfer the compounds to one well in a 384-well Echo plate and serially dilute the compound by 3-fold dilution of 100% DMSO in the next well and so forth for a total of 10 concentrations by Precision. Add 30 μL of 100% DMSO to two empty wells for no compound control and no enzyme control in the same 384-well Echo plate. Make the plate as a source plate.
For USP7 assay, transfer 50 nL of each well from the source plate to a 384-well assay plate (OptiPlate TM-384 F black assay plates) by Echo 550 Liquid Handler.
Added appropriate amount of USP7 in 1× assay Buffer to prepare 2× enzyme solution (USP7 final concentration: 0.05 nM). Added appropriate amount of Ubiquitin-Rhodamine 110 in 1× assay Buffer to prepare 2× substrate solution (Ubiquitin-Rhodamine 110 final concentration: 190 nM). Added 10 μL of 2× enzyme solution to each reaction well of the 384-well assay plate, except for control wells without enzyme (add 10 μL of 1× Assay Buffer instead as for low control). […] Transferred 2× substrate solution to the assay plate. Added 10 μL of 2× substrate solution to each well of the 384-well assay plate to start reaction. Centrifuged at 1000 rpm for 1 min. Read the plate kinetically on SpectraMax Paradigm for 20 min with excitation at 485 nm and emission at 535 nm. Copied raw data (slope) from Reader to obtain inhibition values in Excel using equation (1): […]
Max signal was obtained from the action of Enzyme and Substrate. Min signal was obtained from the Substrate only. To fit the data in XLFit excel add-in version 5.4.0.8 to obtain IC50 values used equation (2): […]
Y is % inhibition and X is compound concentration.
`CN(C)CC(=O)Nc1ccc2c(=O)n(CC3(O)CCN(C(=O)C4CCCC(NC(=O)c5ccc6c(Cl)ccnc6c5)C4)CC3)cnc2c1` (stereo not shown) [Compound 36, 4-chloro-N-(3-(4-((7-(2-(dimethylamino)acetamido)-4-oxoquinazolin-3(4H)-yl)methyl)-4-hydroxypiperidine-1-carbonyl)cyclohexyl)quinoline-7-carboxamide]: the IC50 was greater than 1 µM. `Cn1c(=O)n(CC2(O)CCN(C(=O)C(CCCNC(=O)c3ccc4c(Cl)ccnc4c3)Cc3ccccc3)CC2)c2cnccc21` (stereo not shown) [Compound 37, N-(4-benzyl-5-(4-hydroxy-4-((1-methyl-2-oxo-1H-imidazo[4,5-c]pyridin-3(2H)-yl)methyl)piperidin-1-yl)-5-oxopentyl)-4-chloroquinoline-7-carboxamide]: the IC50 is greater than 1 µM. With `CN1CCN(CCOc2ccc3ncn(CC4(O)CCN(C(=O)C(CCCNC(=O)c5ccc6c(Cl)ccnc6c5)Cc5ccccc5)CC4)c(=O)c3c2)CC1` (stereo not shown) [Compound 38, N-(4-benzyl-5-(4-hydroxy-4-((6-(2-(4-methylpiperazin-1-yl)ethoxy)-4-oxoquinazolin-3(4H)-yl)methyl)piperidin-1-yl)-5-oxopentyl)-4-chloroquinoline-7-carboxamide], the IC50 is greater than 1 µM. `CN(C)CCOc1ccc2ncn(CC3(O)CCN(C(=O)C(CCCNC(=O)c4ccc5c(Cl)ccnc5c4)Cc4ccccc4)CC3)c(=O)c2c1` (stereo not shown) [Compound 39, N-(4-benzyl-5-(4-((6-(2-(dimethylamino)ethoxy)-4-oxoquinazolin-3(4H)-yl)methyl)-4-hydroxypiperidin-1-yl)-5-oxopentyl)-4-chloroquinoline-7-carboxamide]: the IC50 was greater than 1 µM.

With `CN(C)CCC(=O)Nc1ccc2c(=O)n(CC3(O)CCN(C(=O)[C@@H](CCCNC(=O)c4ccc5c(Cl)c6c(nc5c4)CN(C)CC6)Cc4ccccc4)CC3)cnc2c1` [Compound 41], the IC50 was less than 0.02 µM. The figure for `CN(C)CCC(=O)Nc1ccc2c(=O)n(CC3(O)CCN(C(=O)[C@H](CCCNC(=O)c4ccc5c(Cl)c6c(nc5c4)CN(C)CC6)Cc4ccccc4)CC3)cnc2c1` [Compound 42] is 0.1 to 1 µM; for `Cc1cc(Cl)nc2c(C(=O)NCCCC(Cc3ccccc3)C(=O)N3CCC(O)(Cn4cnc5cc(NC(=O)CCN(C)C)ccc5c4=O)CC3)ccn12` (stereo not shown) [Compound 44, N-(4-benzyl-5-(4-((7-(3-(dimethylamino)propanamido)-4-oxoquinazolin-3(4H)-yl)methyl)-4-hydroxypiperidin-1-yl)-5-oxopentyl)-2-chloro-4-methylpyrrolo[1,2-a]pyrimidine-8-carboxamide] it is greater than 1 µM. On to `Cc1cc(Cl)n2cc(C(=O)NCCCC(Cc3ccccc3)C(=O)N3CCC(O)(Cn4cnc5cc(NC(=O)CCN(C)C)ccc5c4=O)CC3)cc2n1` (stereo not shown) [Compound 45, N-(4-benzyl-5-(4-((7-(3-(dimethylamino)propanamido)-4-oxoquinazolin-3(4H)-yl)methyl)-4-hydroxypiperidin-1-yl)-5-oxopentyl)-4-chloro-2-methylpyrrolo[1,2-a]pyrimidine-7-carboxamide], for which the IC50 was greater than 1 µM. In the case of `CN(C)CCC(=O)Nc1ccc2c(=O)n(CC3(O)CCN(C(=O)C(CCCNc4cccc(-c5cc(Cl)ccn5)c4)Cc4ccccc4)CC3)cnc2c1` (stereo not shown) [Compound 46], the concentration for half-maximal inhibition (IC50) is greater than 1 µM. As to `CN(C)CCC(=O)Nc1ccc2c(=O)n(CC3(O)CCN(C(=O)C(CCCNC(=O)c4cc5c(Cl)ccnc5[nH]4)Cc4ccccc4)CC3)cnc2c1` (stereo not shown) [Compound 48, N-(4-benzyl-5-(4-((7-(3-(dimethylamino)propanamido)-4-oxoquinazolin-3(4H)-yl)methyl)-4-hydroxypiperidin-1-yl)-5-oxopentyl)-4-chloro-1H-pyrrolo[2,3-b]pyridine-2-carboxamide], the IC50 is greater than 1 µM. The same measure for `Cc1cc(Cl)c2ccc(C(=O)NCCC[C@H](Cc3ccccc3)C(=O)N3CCC(O)(Cn4cnc5cc(NC(=O)CCN(C)C)ccc5c4=O)CC3)cc2n1` [Compound 50, (R)—N-(4-benzyl-5-(4-((7-(3-(dimethylamino)propanamido)-4-oxoquinazolin-3(4H)-yl)methyl)-4-hydroxypiperidin-1-yl)-5-oxopentyl)-4-chloro-2-methylquinoline-7-carboxamide]: greater than 1 µM. The same measure for `Cc1cc(Cl)c2ccc(C(=O)NCCC[C@@H](Cc3ccccc3)C(=O)N3CCC(O)(Cn4cnc5cc(NC(=O)CCN(C)C)ccc5c4=O)CC3)cc2n1` [Compound 51, (S)—N-(4-benzyl-5-(4-((7-(3-(dimethylamino)propanamido)-4-oxoquinazolin-3(4H)-yl)methyl)-4-hydroxypiperidin-1-yl)-5-oxopentyl)-4-chloro-2-methylquinoline-7-carboxamide]: 0.02 to 0.1 µM. On to `CN(C)CCC(=O)Nc1ccc2c(=O)n(CC3(O)CCN(C(=O)c4cnn(CCNC(=O)c5ccc6c(Cl)ccnc6c5)c4Cc4ccccc4)CC3)cnc2c1` [Compound 53, N-(2-(5-benzyl-4-(4-((7-(3-(dimethylamino)propanamido)-4-oxoquinazolin-3(4H)-yl)methyl)-4-hydroxypiperidine-1-carbonyl)-1H-pyrazol-1-yl)ethyl)-4-chloroquinoline-7-carboxamide], for which the IC50 was 0.1 to 1 µM.

As for `CN(C)CCC(=O)Nc1ccc2c(=O)n(CC3(O)CCN(C(=O)[C@@]4(Cc5ccccc5)CCN(CCNC(=O)c5ccc6c(Cl)ccnc6c5)C4)CC3)cnc2c1` [Compound 57], the IC50 was greater than 1 µM. The same measure for `CN1CCN(CCC(=O)Nc2ccc3c(=O)n(CC4(O)CCN(C(=O)[C@H](CCCNC(=O)c5ccc6c(Cl)ccnc6c5)Cc5ccccc5)CC4)cnc3c2)CC1` [Compound 58, (R)—N-(4-benzyl-5-(4-hydroxy-4-((7-(3-(4-methylpiperazin-1-yl)propanamido)-4-oxoquinazolin-3(4H)-yl)methyl)piperidin-1-yl)-5-oxopentyl)-4-chloroquinoline-7-carboxamide]: greater than 1 µM; for `O=C(CCn1cccn1)Nc1ccc2c(=O)n(CC3(O)CCN(C(=O)C(CCCNC(=O)c4ccc5c(Cl)ccnc5c4)Cc4ccccc4)CC3)cnc2c1` (stereo not shown) [Compound 64, N-(5-(4-((7-(3-(JH-pyrazol-1-yl)propanamido)-4-oxoquinazolin-3(4H)-yl)methyl)-4-hydroxypiperidin-1-yl)-4-benzyl-5-oxopentyl)-4-chloroquinoline-7-carboxamide]: 0.1 to 1 µM; for `COc1cc(Cl)c2ccc(C(=O)NCCCC(Cc3ccccc3)C(=O)N3CCC(O)(Cn4cnc5cc(NC(=O)CCN(C)C)ccc5c4=O)CC3)cc2n1` (stereo not shown) [Compound 66]: greater than 1 µM.

With `COc1cc(Cl)nc2cc(C(=O)NCCCC(Cc3ccccc3)C(=O)N3CCC(O)(Cn4cnc5cc(NC(=O)CCN(C)C)ccc5c4=O)CC3)ccc12` (stereo not shown) [Compound 67], the IC50 was greater than 1 µM. The same measure for `CN(C)CCC(=O)Nc1ccc2c(=O)n(CC3(O)CCN(C(=O)C(CCCNC(=O)c4ccc5c(Cl)nccc5c4)Cc4ccccc4)CC3)cnc2c1` (stereo not shown) [Compound 68]: greater than 1 µM; for `CN(C)CCC(=O)Nc1ccc2c(=O)n(CC3(O)CCN(C(=O)[C@H]4CCN(CCNC(=O)c5ccc6c(Cl)ccnc6c5)C[C@@H]4c4ccccc4)CC3)cnc2c1` [Compound 74]: greater than 1 µM. Regarding `CN(C)CCC(=O)Nc1ccc2c(=O)n(CC3(O)CCN(C(=O)[C@@H]4CN(CCNC(=O)c5ccc6c(Cl)ccnc6c5)C[C@H]4c4ccccc4)CC3)cnc2c1` [Compound 76], the IC50 is 0.1 to 1 µM. For the molecule `CN(C)CCC(=O)Nc1ccc2c(=O)n(CC3(O)CCN(C(=O)C(CCCNC(=O)c4ccc5c(Cl)ccnc5c4)Cc4cccnc4)CC3)cnc2c1` (stereo not shown) [Compound 82], the half-inhibitory concentration (IC50) lay in the range of 0.1 to 1 µM.
